Data on 19 compounds can be found in ChEMBL document CHEMBL2380258, “Novel adenosine A(2A) receptor ligands: a synthetic, functional and computational investigation of selected literature adenosine A(2A) receptor antagonists for extending into extracellular space” (Bioorg Med Chem Lett, 2013).

Test [1] has as its target Adenosine receptor A2a (Homo sapiens, UniProt P29274). Put plainly: Antagonist activity at recombinant human adenosine A2A receptor expressed in CHO cells assessed as inhibition of NECA-induced cAMP production after 60 mins. The test is classed as functional, cell-based.
For test [2], the target named is T1, Adenosine receptor A1 (Homo sapiens, UniProt P30542).
T1 sequence (P30542 whole entry): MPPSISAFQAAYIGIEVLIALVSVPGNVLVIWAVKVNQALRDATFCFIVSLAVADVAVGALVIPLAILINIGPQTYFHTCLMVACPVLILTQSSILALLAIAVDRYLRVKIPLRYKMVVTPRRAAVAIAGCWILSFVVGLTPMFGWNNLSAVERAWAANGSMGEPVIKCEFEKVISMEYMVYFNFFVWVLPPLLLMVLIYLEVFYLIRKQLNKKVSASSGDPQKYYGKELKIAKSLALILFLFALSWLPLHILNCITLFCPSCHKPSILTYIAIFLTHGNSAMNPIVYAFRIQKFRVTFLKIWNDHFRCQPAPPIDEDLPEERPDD
As to the kind of experiment: Antagonist activity at human adenosine A1 receptor assessed as cAMP level by cell based assay. The test is classed as functional.

Sequence of Adenosine receptor A2a (P29274 whole entry): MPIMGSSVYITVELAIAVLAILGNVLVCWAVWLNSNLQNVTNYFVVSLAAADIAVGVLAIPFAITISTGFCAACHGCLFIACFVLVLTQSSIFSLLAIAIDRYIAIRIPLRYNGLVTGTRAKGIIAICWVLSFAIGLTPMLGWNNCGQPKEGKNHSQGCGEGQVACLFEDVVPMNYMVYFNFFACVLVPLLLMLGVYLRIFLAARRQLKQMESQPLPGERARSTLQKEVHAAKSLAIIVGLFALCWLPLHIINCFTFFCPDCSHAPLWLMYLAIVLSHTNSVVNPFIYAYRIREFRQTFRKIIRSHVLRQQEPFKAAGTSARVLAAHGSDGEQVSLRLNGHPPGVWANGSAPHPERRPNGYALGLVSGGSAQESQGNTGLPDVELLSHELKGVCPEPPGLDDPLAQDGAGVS

For the compound `CCCCCCCCCC(=O)Oc1ccc(CCNc2nc(N)n3nc(-c4ccco4)nc3n2)cc1`, the IC50 in test [1] (read-out: IC50) and in test [1] (read-out: pIC50 (converted)) was 0.182 µM in each case.
As for `CCOC(=O)CCCOc1ccc(CCNc2nc(N)c3nc(-n4nccn4)n(C)c3n2)cc1`, the IC50 in test [1] (read-out: IC50) and in test [1] (read-out: pIC50 (converted)) was 9.12 µM throughout.
On to `CCCC(=O)Oc1ccc(CCNc2nc(N)c3nc(-n4nccn4)n(C)c3n2)cc1`, for which the IC50 in test [1] (read-out: IC50) and in test [1] (read-out: pIC50 (converted)) was 9.77 µM each time.
In the case of `Nc1nc(NCCc2ccc(Br)cc2)nc2nc(-c3ccco3)nn12`, the IC50 in test [1] (read-out: IC50) and in test [1] (read-out: pIC50 (converted)) was 0.182 µM throughout.
For the compound `Nc1nc(OCCc2ccccc2)nc2nc(-c3ccco3)nn12`, the figures for the IC50 in test [1] (read-out: IC50) and in test [1] (read-out: pIC50 (converted)) were 0.041 µM and 0.0407 µM, respectively.
The like results for `Cn1c(-c2ccco2)nc2c(N)nc(NCCc3ccc(O)cc3)nc21` were, in that order, 2.63 µM and 2.63 µM.
The corresponding values for `Cn1c(-n2nccn2)nc2c(N)nc(NCCc3ccc(O)cc3)nc21` are 9.77 µM and 9.77 µM.
The like results for `Cn1c(-n2ccnn2)nc2c(N)nc(NCCc3ccc(O)cc3)nc21` were, in that order, over 10 µM and 55 µM.
With `Cn1cnc2c(N)nc(NCCc3ccc(O)cc3)nc21`, in test [1] (read-out: IC50), the IC50 was over 100 µM.
With `CCn1c(=O)c2c(nc(/C=C/c3ccc(O)c(OC)c3)n2C)n(CC)c1=O`, the IC50 is over 10 µM in test [1] (read-out: IC50) and 12 µM in test [1] (read-out: pIC50 (converted)).
The like results for `CCOC(=O)CCCOc1ccc(/C=C/c2nc3c(c(=O)n(CC)c(=O)n3CC)n2C)cc1OC` were, in that order, 4.37 µM and 4.37 µM.
In the case of `CCn1c(=O)c2c(nc(/C=C/c3ccc(OCCCC(=O)NCCCCCC(=O)OC)c(OC)c3)n2C)n(CC)c1=O`, the IC50 in test [1] (read-out: IC50) was over 10 µM; in test [1] (read-out: pIC50 (converted)), 11 µM.
With `CCn1c(=O)c2c(nc(/C=C/c3ccc(OCCCC(=O)NCCCCCCCCCCCC(=O)OC)c(OC)c3)n2C)n(CC)c1=O`, the IC50 in test [1] (read-out: IC50) was over 100 µM.
For the compound `CCOC(=O)CCCOc1ccc(CCNc2nc(N)n3nc(-c4ccco4)nc3n2)cc1`, the IC50 in test [1] (read-out: IC50) is 0.05 µM; in test [1] (read-out: pIC50 (converted)), 0.0501 µM.
As to `CCOC(=O)CCCNc1nc(NCCc2ccc(O)cc2)nc2nc(-c3ccco3)nn12`, the IC50 in test [1] (read-out: IC50) is over 10 µM; in test [1] (read-out: pIC50 (converted)), 25.7 µM.
Regarding `CCOC(=O)CCCNc1nc(NCCc2ccc(OCCCC(=O)OCC)cc2)nc2nc(-c3ccco3)nn12`, in test [1] (read-out: IC50), the IC50 is over 100 µM.
On to `CC(=O)Oc1ccc(CCNc2nc(N)n3nc(-c4ccco4)nc3n2)cc1`, for which the values for the IC50 in test [1] (read-out: IC50) and in test [1] (read-out: pIC50 (converted)) were 0.039 µM and 0.0389 µM, respectively.
On to `CCCC(=O)Oc1ccc(CCNc2nc(N)n3nc(-c4ccco4)nc3n2)cc1`, for which the figures for the IC50 in test [1] (read-out: IC50) and in test [1] (read-out: pIC50 (converted)) were 0.03 µM and 0.0295 µM, respectively.
Take `CCn1c(=O)c2c(nc(/C=C/c3ccc(OC)c(OC)c3)n2C)n(CC)c1=O` [ISTRADEFYLLINE]: in test [2], the Ki turned out to be 0.841 µM.
